The values below come from ChEMBL document CHEMBL4411318, “Discovery of a Series of 2'-α-Fluoro,2'-β-bromo-ribonucleosides and Their Phosphoramidate Prodrugs as Potent Pan-Genotypic Inhibitors of Hepatitis C Virus” (J Med Chem, 2019).

One data set concerns PBMC. Put plainly: (§1) Cytotoxicity against human PBMC assessed reduction in cell viability after 5 days by MTT assay. Type of data set: cell-based. The following applies: pbmc, 120 h. On the technique in general: Tetrazolium dyes change colour on reduction, which living cells bring about.
A short description of data set [1]: Cytotoxicity against human HuH7 cells assessed reduction in cell viability after 3 to 5 days by MTT assay. Type of data set: cell-based, Huh-7.
The subject of a further data set is CCRF-CEM. The experiment in a line: (§2) Cytotoxicity against human CCRF-CEM assessed reduction in cell viability after 4 days by MTT assay. It is filed as cell-based. The conditions noted are these: ccrf-cem, 96 h.
The target of data set [2] is RNA-directed RNA polymerase (Hepacivirus hominis) (UniProt O39930). The following applies: Hepatitis C virus subtype 1b.
RNA-directed RNA polymerase (Hepacivirus hominis), sequence (O39930 1-591): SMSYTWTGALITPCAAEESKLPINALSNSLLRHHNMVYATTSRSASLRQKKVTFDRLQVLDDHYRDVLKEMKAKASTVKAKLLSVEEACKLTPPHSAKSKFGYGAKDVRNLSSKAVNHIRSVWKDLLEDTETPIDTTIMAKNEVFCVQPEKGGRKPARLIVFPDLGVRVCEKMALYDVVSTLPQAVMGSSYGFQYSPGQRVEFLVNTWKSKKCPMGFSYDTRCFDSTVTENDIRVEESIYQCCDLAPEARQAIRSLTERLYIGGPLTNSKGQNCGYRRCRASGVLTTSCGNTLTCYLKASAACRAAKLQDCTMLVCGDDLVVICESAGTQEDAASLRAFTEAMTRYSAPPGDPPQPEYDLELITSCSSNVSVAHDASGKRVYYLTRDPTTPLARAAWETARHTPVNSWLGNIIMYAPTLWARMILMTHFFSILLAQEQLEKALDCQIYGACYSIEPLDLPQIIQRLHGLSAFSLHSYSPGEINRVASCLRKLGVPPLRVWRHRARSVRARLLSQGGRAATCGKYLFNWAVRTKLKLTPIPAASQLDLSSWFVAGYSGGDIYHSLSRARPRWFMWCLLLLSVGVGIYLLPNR
Description: Inhibition of NS5B polymerase in wild type HCV genotype 1b infected in human Huh7 replicon cells after 5 days by RT-PCR assay
Data set [3] in a line: Mitochondrial toxicity in human HepG2 cells assessed as reduction in cell viability after 14 days in presence of glucose supplemented media by ATP depletion assay. Type of data set: cell-based.
Data set [4] is described as follows: Mitochondrial toxicity in human HepG2 cells assessed as reduction in cell viability after 3 days in presence of galactose supplemented media by ATP depletion assay. It is filed as cell-based.
Data set [5] is described as follows: in vitro. The conditions noted are these: human, liver microsomes.
Description: Intrinsic clearance in human liver measured from intrinsic clearance in human liver microsomes in presence of NADPH regenerating system by LC/MS/MS analysis
Data set [6] can be described thus: as §1. It is filed as cell-based. The conditions noted are these: PBMC.
A short description of data set [7]: Half life in human intestinal microsomes by LC/MS/MS analysis. It is filed as ADME, Intestine, Microsome.
Data set [8] can be described thus: Stability in simulated intestinal fluid after 24 hrs by LC/MS/MS analysis. The conditions noted are these: simulated gi fluid. Type of data set: ADME.
Data set [9] is described as follows: in vitro. The conditions noted are these: human, liver microsomes. This is another data set of the same source.
Description: Intrinsic clearance in human liver microsomes in presence of NADPH regenerating system by LC/MS/MS analysis
Data set [10] deals with Bone marrow cell. The experiment in a line: Cytotoxicity against human bone marrow cells assessed as inhibition of colony-forming unit-granulocyte after 14 days by FACS analysis. The following applies: 336 h. Type of data set: cell-based. A general note: A flow cytometer gives signals particle by particle.
Data set [11] can be described thus: Mitochondrial toxicity in human HepG2 cells assessed as reduction in cell viability after 3 days in presence of glucose supplemented media by ATP depletion assay. Type of data set: cell-based.
Data set [12] in a line: Mitochondrial toxicity in human HepG2 cells assessed as reduction in cell viability after 14 days in presence of galactose supplemented media by ATP depletion assay. It is filed as cell-based.
The nature of data set [13]: in vitro. The conditions noted are these: human, liver microsomes. This is another data set of the same source.
Description: Half life in human liver microsomes in presence of NADPH regenerating system by LC/MS/MS analysis
A short description of data set [14]: as §2. It is filed as cell-based. The following applies: CCRF-CEM cells.
Data set [15] addresses RNA-directed RNA polymerase (Hepacivirus hominis) (UniProt O39930). Put plainly: Inhibition of NS5B polymerase in HCV genotype 1b/4a chimeric replicon infected in human HuH7 replicon cells after 5 days by RT-PCR analysis. It is filed as cell-based. For orientation: Replicon systems follow genome replication, usually without infectious particles.
Data set [16] relates to nuclear ribosomal-DNA level. Put plainly: Mitochondrial toxicity in human HepG2 cells assessed as inhibition of nuclear ribosomal-DNA level at 12.5 uM followed by medium plus drugs replenishment every 3 to 4 days for 14 days relative to control. Type of data set: cell-based.
Data set [17] deals with HepG2. The experiment in a line: Mitochondrial toxicity in human HepG2 cells assessed as lactic acid production at 12.5 uM followed by medium plus drugs replenishment every 3 to 4 days for 14 days relative to control. It is filed as cell-based. The conditions noted are these: hepg2, 336 h.
A short description of data set [18]: Stability in human plasma assessed as compound remaining at 2 uM after 120 mins by LC/MS/MS analysis. It is filed as ADME, cell-free. The conditions noted are these: read-out: Stability.
Data set [19] in a line: Prodrug activation in Beagle dog liver assessed as assessed as formation of triphosphate form parent nucleoside at 10 mg/kg, po measured at 4 hrs by LC-MS/MS analysis. The conditions noted are these: in vivo.
Data set [20] concerns nuclear ribosomal-DNA level. The experiment in a line: Mitochondrial toxicity in human HepG2 cells assessed as inhibition of nuclear ribosomal-DNA level at 25 uM followed by medium plus drugs replenishment every 3 to 4 days for 14 days relative to control. Type of data set: cell-based.
Data set [21] in a line: Drug uptake in Beagle dog liver at 10 mg/kg, po measured up to 4 hrs by LC-MS/MS analysis. The conditions noted are these: in vivo, BLD = below limit of detection.
In data set [22] the test system is HepG2. Put plainly: Mitochondrial toxicity in human HepG2 cells assessed as lactic acid production at 25 uM followed by medium plus drugs replenishment every 3 to 4 days for 14 days relative to control. Type of data set: cell-based. The conditions noted are these: hepg2, 336 h.
Data set [23] addresses RNA-directed RNA polymerase (Hepacivirus hominis) (UniProt O39930). Put plainly: Inhibition of NS5B polymerase in HCV genotype 2a infected in human HuH7 replicon cells after 5 days by RT-PCR analysis. It is filed as cell-based. The conditions noted are these: Hepatitis C virus subtype 2a.
Data set [24] has as its system nuclear ribosomal-DNA level. Put plainly: Mitochondrial toxicity in human HepG2 cells assessed as inhibition of nuclear ribosomal-DNA level at 50 uM followed by medium plus drugs replenishment every 3 to 4 days for 14 days relative to control. It is filed as cell-based.
In data set [25] the test system is HepG2. Put plainly: Mitochondrial toxicity in human HepG2 cells assessed as lactic acid production at 50 uM followed by medium plus drugs replenishment every 3 to 4 days for 14 days relative to control. Type of data set: cell-based. The conditions noted are these: hepg2, 336 h.
Data set [26] is described as follows: in vitro. The conditions noted are these: human, liver microsomes. This is another data set of the same source.
Description: Stability in human liver microsomes assessed as compound remaining in absence of NADPH regenerating system after 60 mins by LC/MS/MS analysis
Data set [27] deals with nuclear ribosomal-DNA level. Put plainly: in vitro. The conditions noted are these: human, HepG2 cells.
The subject of data set [28] is Bone marrow cell. The experiment in a line: Cytotoxicity against human bone marrow cells assessed as inhibition of burst forming unit-erythroid after 14 days by FACS analysis. Type of data set: cell-based. The conditions noted are these: 336 h.
For data set [29], the target named is RNA-directed RNA polymerase (Hepacivirus hominis) (UniProt O39930). Put plainly: Inhibition of NS5B polymerase in HCV genotype 1b/5a chimeric replicon infected in human HuH7 replicon cells after 5 days by RT-PCR analysis. Type of data set: cell-based.
A short description of data set [30]: Drug metabolism in human HuH7 cells assessed as Tmax for NTP formation at 10 uM after 2 to 48 hrs by LC-MS/MS analysis. It is filed as ADME, cell-based. The following applies: huh-7, 10 µM.
Data set [31] has as its system cytochrome c oxidase subunit 2 DNA level. Put plainly: Mitochondrial toxicity in human HepG2 cells assessed as inhibition of cytochrome c oxidase subunit 2 DNA level at 12.5 uM followed by medium plus drugs replenishment every 3 to 4 days for 14 days relative to control. It is filed as cell-based.
Data set [32] shares this test system. Put plainly: Mitochondrial toxicity in human HepG2 cells assessed as inhibition of cytochrome c oxidase subunit 2 DNA level at 50 uM followed by medium plus drugs replenishment every 3 to 4 days for 14 days relative to control. Type of data set: cell-based.
A short description of data set [33]: Cardiotoxicity against human embryonic stem cell-induced ventricular cardiomyocytes administered on day 7 and measured on day 10 after 30 mins incubation by CellTiter Glo assay. Type of data set: toxicity, cell-based, Cardiac muscle cell.
In data set [34] the target is RNA-directed RNA polymerase (Hepacivirus hominis) (UniProt O39930). The following applies: genotype 1b/3a.
Description: Inhibition of NS5B polymerase in HCV genotype 1b/3a chimeric replicon infected in human HuH7 replicon cells after 5 days by RT-PCR analysis
Data set [35] is described as follows: Nephrotoxicity in human HK2 cells after 72 hrs by Hoechst 33342/HCS live/dead green dye-based assay. Type of data set: toxicity, cell-based, HK-2.
Data set [36] is described as follows: Drug metabolism in human primary hepatocytes assessed as Tmax for NTP formation at 10 uM after 2 to 48 hrs by LC-MS/MS analysis. Type of data set: ADME, cell-based, Hepatocyte.
The test system of data set [37] is cytochrome c oxidase subunit 2 DNA level. Put plainly: Mitochondrial toxicity in human HepG2 cells assessed as inhibition of cytochrome c oxidase subunit 2 DNA level followed by medium plus drugs replenishment every 3 to 4 days for 14 days relative to control. Type of data set: cell-based.
The nature of data set [38]: Cytotoxicity in human HepaRG cells assessed as reduction in cell viability incubated for 14 days by CellTiter-Glo assay. It is filed as cell-based.
Data set [39] concerns nuclear ribosomal-DNA level. Put plainly: in vitro. The following applies: human, HepG2 cells. This is another data set of the same source.
Data set [40] deals with HepG2. Put plainly: Mitochondrial toxicity in human HepG2 cells 10 uM followed by medium plus drugs replenishment every 3 to 4 days for 14 days relative to control. Type of data set: cell-based. The following applies: hepg2, 336 h.
Data set [41] deals with cytochrome c oxidase subunit 2 DNA level. The experiment in a line: Mitochondrial toxicity in human HepG2 cells assessed as inhibition of cytochrome c oxidase subunit 2 DNA level at 10 uM followed by medium plus drugs replenishment every 3 to 4 days for 14 days relative to control. It is filed as cell-based.

On to `C[C@@]1(O)[C@H](O)[C@@H](CO)O[C@H]1n1ccc(N)nc1=O`, for which the CC50 in the data set with PBMC is 60 µM; in data set [1], above 100 µM; in the data set on CCRF-CEM, 22 µM. The compound further gave an EC90 in data set [2] of 9.9 µM.
In the case of `CC(C)OC(=O)[C@H](C)N[P@](=O)(OC[C@H]1O[C@@H](n2ccc(=O)[nH]c2=O)[C@@](F)(Br)[C@@H]1O)Oc1ccccc1` (single isomer, unassigned), the figures for the IC50 at 14 days in [3], in [12] and in [27] were above 100 µM, above 100 µM and 32 µM, respectively. Besides, the IC50 at 3 days in data set [4], in [11] and in [33] was above 100 µM in each case. Further, the intrinsic metabolic clearance (CLint scaled) in “in vitro [5]” came to 3.79 L/h/kg. Also, in data set [6], the CC50 at 120 h was above 100 µM. The half-life in data set [7] is above 2.42 h; in “in vitro [13]” it was 0.328 h. Also, in data set [8], the Stability entry is given as “Stable”. For the same compound, the microsomal CLint in the data set “in vitro [9]” is 70.2 µL/min/mg. The figures for the IC50 in the data set on Bone marrow cell [10] and in the data set with Bone marrow cell [28] were 76 µM and 72 µM, respectively. For the same compound, the CC50 in data set [1] is above 10 µM. In data set [14], this compound returned a CC50 at 96 h above 100 µM. Moreover, the EC90 in data set [15] was 0.13 µM; in data set [23], 0.077 µM; in [29], 0.083 µM; in data set [2], 0.074 to 0.28 µM. The inhibition at 336 h, 12.5 µM in data set [16] turned out to be 11%; in [31] it was 23%. The Activity in the data set on HepG2 [17] is 90%; in the data set with HepG2 [22], 120%; in the data set on HepG2 [25], 220%. In data set [18], the remaining at 2 h, 2 µM amounted to 90%. The Drug metabolism in [19] was 20130 ng/mL. Also, the inhibition at 336 h, 25 µM in data set [20] was 39%. For the same compound, the Drug uptake result in data set [21] is given as “Bld”. Moreover, the inhibition at 336 h, 50 µM in [24] was 72%; in data set [32], 58%. The compound further had a remaining at 1 h in “in vitro [26]” of 3.7%. Further, in data set [30], the Tmax was 12 h.
As to `CC(C)OC(=O)[C@H](C)N[P@](=O)(OC[C@H]1O[C@@H](n2ccc(=O)[nH]c2=O)[C@](C)(F)[C@@H]1O)Oc1ccccc1` [SOFOSBUVIR], the CC50 at 120 h in data set [6] is above 100 µM. For the same compound, the EC90 in [34] is 0.37 µM; in data set [15] it was 0.15 µM; in data set [23], 0.13 µM; in data set [2] it was 0.15 to 0.9 µM. The compound also gave a CC50 at 72 h in data set [35] above 300 µM. In addition, the time to peak (Tmax) in data set [36] was 12 h. The CC50 in data set [1] is above 100 µM. For the same compound, in data set [14], the CC50 at 96 h is above 100 µM. Besides, the inhibition at 336 h, 12.5 µM in [16] worked out at 3.1%; in data set [31], 6.7%. Further, the Activity was determined as 79% in the data set with HepG2 [17] and 180% in the data set with HepG2 [25]. Also, the values for the IC50 at 14 days in [37] and in data set [27] were above 50 µM and 45 µM, respectively. The CC50 at 336 h in data set [38] worked out at 44 µM. The inhibition at 336 h, 50 µM worked out at 58% in [24] and 44% in data set [32]. The compound also had a CC50 at 0.5 h in data set [33] above 100 µM.
As to `Nc1ccn([C@H]2CC[C@@H](CO)O2)c(=O)n1` [ZALCITABINE], the inhibition at 336 h, 10 µM in data set [39] was 50%; in [41] it was 84%. The Activity with HepG2 [40] stood at 200%. Moreover, the IC50 at 14 days in [37] and in [27] was below 10 µM throughout.

Usually CC50 stands for the concentration giving 50% cytotoxicity. By EC90 is commonly meant the concentration at which the effect reaches the 90% level. The IC50 is the concentration that inhibits the measured activity by half. One may read the CLint scaled as a measure of how fast metabolising enzymes remove a compound, apart from limits set by blood flow. A higher CLint scaled goes with rapid turnover. One may read the half-life as the time needed for the level to fall by half in the phase considered. The low end stands for rapid decline, the high end for slow decline. What is called microsomal CLint is a measure of how fast metabolising enzymes remove a compound, apart from limits set by blood flow. A low value points to greater metabolic stability. The inhibition is the share of the control response that was lost under treatment. For orientation: Tmax means the time from dosing to the highest level.
